Assay results published in patent US7560473B2 (Institute of Pharmacology and Toxicology Academy of …, priority 2001, dated 2009).

Tests used:
[1] = target: T1, ATP-sensitive potassium channels in vascular smooth muscles (Rattus norvegicus, UniProt Q63563); test: Association and dissociation kinetics of [^3H]glibenclamide binding in aortic rings; set-up: species or system Wistar rat; conditions: drug M: compound 1 10^−4, pinacidil 10^−4, ATP 10^−2, ADP 10^−3, UDP 5 × 10^−3, Ade 10^−3
T1 construct: The aorta was cut into about 3-5 mm arterial rings and the vascular endothelium was scraped off; from tissue; host or cells: endothelium-removed aortic rings of male Wistar rats
T1 sequence (Q63563 1-1545 isoform Q63563-2): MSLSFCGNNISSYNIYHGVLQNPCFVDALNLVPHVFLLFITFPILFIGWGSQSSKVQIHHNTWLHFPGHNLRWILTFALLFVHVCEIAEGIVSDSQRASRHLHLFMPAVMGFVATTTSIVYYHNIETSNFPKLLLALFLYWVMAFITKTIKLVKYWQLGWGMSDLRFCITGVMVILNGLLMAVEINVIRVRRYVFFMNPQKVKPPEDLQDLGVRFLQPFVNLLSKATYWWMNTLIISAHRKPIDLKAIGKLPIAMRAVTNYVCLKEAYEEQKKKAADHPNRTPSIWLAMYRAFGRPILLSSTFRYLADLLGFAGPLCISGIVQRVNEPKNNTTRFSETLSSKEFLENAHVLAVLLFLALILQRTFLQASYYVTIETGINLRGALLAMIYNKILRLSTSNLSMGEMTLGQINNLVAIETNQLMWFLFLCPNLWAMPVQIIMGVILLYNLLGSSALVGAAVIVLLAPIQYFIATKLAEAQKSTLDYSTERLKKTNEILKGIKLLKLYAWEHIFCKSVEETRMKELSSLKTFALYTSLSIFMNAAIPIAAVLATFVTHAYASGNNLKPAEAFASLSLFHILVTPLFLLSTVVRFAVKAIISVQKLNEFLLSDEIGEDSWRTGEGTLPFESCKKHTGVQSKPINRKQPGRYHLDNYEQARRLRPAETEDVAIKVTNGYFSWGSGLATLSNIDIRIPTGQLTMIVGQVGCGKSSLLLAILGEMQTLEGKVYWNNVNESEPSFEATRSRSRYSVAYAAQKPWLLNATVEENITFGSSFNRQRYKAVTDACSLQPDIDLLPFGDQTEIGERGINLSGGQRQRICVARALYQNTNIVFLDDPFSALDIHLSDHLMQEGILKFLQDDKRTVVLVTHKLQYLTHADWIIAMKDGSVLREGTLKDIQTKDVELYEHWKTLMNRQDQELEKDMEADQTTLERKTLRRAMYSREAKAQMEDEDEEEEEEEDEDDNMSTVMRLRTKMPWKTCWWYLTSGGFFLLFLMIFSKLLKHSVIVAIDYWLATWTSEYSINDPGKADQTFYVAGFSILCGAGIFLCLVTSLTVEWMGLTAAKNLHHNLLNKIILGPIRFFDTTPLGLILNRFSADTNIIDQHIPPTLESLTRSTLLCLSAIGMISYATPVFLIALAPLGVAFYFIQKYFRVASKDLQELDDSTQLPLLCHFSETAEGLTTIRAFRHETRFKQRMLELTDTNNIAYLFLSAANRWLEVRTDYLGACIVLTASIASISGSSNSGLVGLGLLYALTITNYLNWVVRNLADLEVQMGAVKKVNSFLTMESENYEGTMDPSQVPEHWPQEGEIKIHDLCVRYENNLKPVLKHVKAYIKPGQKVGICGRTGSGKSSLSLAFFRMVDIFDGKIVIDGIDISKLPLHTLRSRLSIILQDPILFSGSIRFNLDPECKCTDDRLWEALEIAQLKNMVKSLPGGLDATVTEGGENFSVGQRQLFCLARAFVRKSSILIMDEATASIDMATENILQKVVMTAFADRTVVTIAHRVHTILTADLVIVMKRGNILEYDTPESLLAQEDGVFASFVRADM
T1 sequence (Q63664 whole entry partner): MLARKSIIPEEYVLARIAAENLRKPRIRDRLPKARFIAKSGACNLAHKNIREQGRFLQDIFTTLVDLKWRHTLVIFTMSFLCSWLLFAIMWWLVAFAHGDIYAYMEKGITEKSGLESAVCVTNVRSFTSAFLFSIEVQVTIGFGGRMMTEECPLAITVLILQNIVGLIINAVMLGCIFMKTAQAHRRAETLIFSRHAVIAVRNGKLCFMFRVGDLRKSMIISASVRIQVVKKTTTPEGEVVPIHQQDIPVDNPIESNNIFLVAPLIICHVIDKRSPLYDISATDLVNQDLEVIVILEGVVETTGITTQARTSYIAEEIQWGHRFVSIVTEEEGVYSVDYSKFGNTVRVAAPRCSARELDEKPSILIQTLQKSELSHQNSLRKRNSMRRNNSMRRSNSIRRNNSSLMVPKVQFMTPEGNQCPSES
Description: Biological activity experiment 4. Allosteric regulation of novel compounds on ATP-sensitive potassium channels in vascular smooth muscles.
To study the allosteric regulation of compound 1 on ATP-sensitive potassium channels in vascular smooth muscles, the radio-labled-ligand was used in the biological activity experiment 4.
1. The allosteric regulation of compound 1 on the binding sites for the selective KATP blocker glibenclamide in vascular smooth muscles was studied as follows: After decapitated, the male Wistar rat (340±20 g) was immediately incised open the thoracic cavity. The aorta was dissected and immersed in the 4° C. buffer containing 10 mM HEPES to wash off the blood, then carefully extirpated the fat, peripheral connective tissues and thrombus. The aorta was cut into about 3-5 mm arterial rings and the vascular endothelium was scraped off with wet tampon. The arterial rings were blotted, weighted and transferred into the tubes containing proper amount of ice colded physiological saline buffer. […] At 5,10,15,20,30,60,90 and 120 min after incubation, 9 mL ice colded Tris buffer (50 mM) was added to terminate the reaction. After washing off the free and bound [^3H]-glibenclamide, the aorta was blotted, transferred to a scintillator, added 50 uL 30% H2O2 and reacted for 2 h at 80° C. After cooling, 2.5 mL ethyl glycol and 5 mL 1% B-BPD xylene were added in sequence, kept stationary for 8 h and measured under a scintillometer for cpm value. The resulting data were fit into a regression line with In[BEQ/(BEQ-Bt)]vs.t and the parameters for association kinetics were obtained. In the disassociation kinetics experiments, the aorta treated as described above and [^3H]-glibenclamide were incubated for 60 min at 25° C., and then 30 uM glibenclamide was added. 0,5,15,30,60,90 and 120 min later, the cpm values for the complex of [^3H]-glibenclamide and KATP were measured. The resulting data were fit into a regression line with In(B/BEQ)]vs.t and the parameters for disassociation kinetics were obtained. 2. The allosteric regulation of compound 1 on the binding sites for the selective KATP activator P1075 in vascular smooth muscles was studied with the method as described above, but some conditions should be changed as follows: the incubation temperature was 37° C. instead of 25° C.;P1075 was used instead of glibenclamide; In the association kinetics experiments, the time points for sampling were 5,10,15,20,30,45,60 and 90 min, while in the disassociation kinetics experiments, that were 1,3,5,10,20,30,45 and 60 min. Biological activity experiment 5. The effects of compound 1 on the specific binding of high selective activator [^3H]P1075 with ATP-sensitive potassium channels in vascular smooth muscles.

[2] = target: T1, ATP-sensitive potassium channels in vascular smooth muscles; test: Inhibition of specific binding of [^3H]P1075 in endothelium-removed rat aorta; set-up: species or system Wistar rat; conditions: [^3H] P1075 5 nmol L^−1, 90 minutes at 37° C., endothelium-removed rat aorta
[3] = test system: spontaneously hypertensive rats; test: Acute antihypertensive effects in conscious spontaneously hypertensive rats; type: in vivo; conditions: po mg/kg: compound 1 3, pinacidil 3, nifedipine 10, bisoprolol 60, captopril 40, means ± SD, 9-13 rats
Description: Biological activity experiment 2. The acute antihypertensive effects of compound 1 in conscious spontaneously hypertensive rats.
The methods of biological activity experiment 2 were described by Long Chao-Liang et al: Long Chao-Liang, Wang Hai, Xiao Wen-Bin. Effects of pinacidil on, hypertensive vascular remodeling. Chin J Pharmacol Toxicol 1997; 11(1):42-46.

[4] = test system: rats anesthetized with pentobarbital sodium; test: Antagonism of glibenclamide on the cardiovascular effects in anesthetized rats; type: in vivo, Wistar rats; conditions: for +dp/dtmax / DBP / HR / LVSP / MBP / SB / Vpm / −dp/dtmax: iv mg/kg: pinacidil 1.0, nifedipine 1.0, compound 1 0.5, means ± SE
Protocol: The methods of biological activity experiment 1 were as follows: Male Wistar rats, weighing 280±30 g were purchased from the experimental animal center of Academy of Military Medical Sciences. Rats were anesthetized with pentobarbital sodium (45 mg/kg) by peritoneal injection. A PE50 polyethylene catheter was inserted into the left ventricle through right carotid artery for cardiac function measurement with a pressure energe exchanger, wherein the signal is put into a SMUP-PC biosignal processing system. Cardiac functional parameters such as HR, LVSP, +dp/dtmax, −dp/dtmax and Vpm were recorded. Another two PE50 polyethylene catheters were inserted into the right femoral artery and vein respectively for blood pressure measurement wherein the artery cathether was linked to a four-channel physiology recorder (RM-6000) through a MPU-0.5A Type pressure energe exchanger, which recorded SBP, DBP and MBP, while the vein catheter was used for compound administration. The methods were described by Liu Wei et al: Liu Wei, Wang Hai, Xiao Wen-Bin.
The methods of Biological activity experiment 3 were the same as those described in the biological activity experiment 1.

[5] = A: after administration (30 min after pinacidil, 10 min nifedipine, 15 min compound 1), glibenclamide 20 iv pretreatment
[6] = B: before administration, glibenclamide 20 iv pretreatment ten minutes

**Q.** Which “Dissociation kinetics k2 of [^3H]glibenclamide binding” value ([1]; 25° C., control 0.72 ± 0.11) does the source give for CC(N/C(=N\C#N)Nc1ccncc1)C(C)(C)C (centres unmarked) [pinacidil] here?
**A.** 1.15 ± 0.27 ×10^2 nM^−1 · min^−1

**Q.** And the “Dissociation kinetics Kd of [^3H]glibenclamide binding in presence of the drug” value ([1]; Kd of the radioligand, not of the drug, control 0.55 ± 0.14)?
**A.** 0.00295 ± 0.00095 µM

**Q.** And the “Association kinetics k1 of [^3H]glibenclamide binding” value ([1]; [^3H]-glibenclamide 3 nM, 25° C., control 1.31 ± 0.14)?
**A.** 0.39 ± 0.24 ×10^−2nM^−1 · min^−1

**Q.** And the “Association kinetics kobs of [^3H]glibenclamide binding” value ([1]; [^3H]-glibenclamide 3 nM, 25° C., control 4.65 ± 0.37, means ± SD, n = 4~10)?
**A.** 2.32 ± 0.67 ×10^−2nM^−1 · min^−1

**Q.** What about the “Association kinetics kA of [^3H]glibenclamide binding” value ([1]; [^3H]-glibenclamide 3 nM, 25° C., control 181.90 ± 46.90) of the same molecule?
**A.** 33.91 ± 22.43 ×10^−2nM^−1 · min^−1

**Q.** What about the IC50 [2] of the same molecule?
**A.** 0.2 ± 0.0436 µM

**Q.** And the Ki ([2]; read-out: pKi for inhibition of specific binding of [^3H]P1075 (converted))?
**A.** 0.2 µM

**Q.** And the “SBP at 1 h after administration” value ([3]; 1 h)?
**A.** 208 ± 5 mmHg

**Q.** And the “heart rates at 1 h” value ([3]; 1 h, in bpm (unit assumed))?
**A.** 421 ± 17

**Q.** And the “SBP at 3 h after administration” value ([3]; 3 h)?
**A.** 236 ± 5 mmHg

**Q.** What about the “heart rates at 3 h” value ([3]; 3 h, in bpm (unit assumed)) of the same molecule?
**A.** 400 ± 15

**Q.** And the “SBP at 5 h after administration” value ([3]; 5 h)?
**A.** 241 ± 4 mmHg

**Q.** What about the “heart rates at 5 h” value ([3]; 5 h, in bpm (unit assumed)) of the same molecule?
**A.** 354 ± 14

**Q.** And the “SBP at 9 h after administration” value ([3]; 9 h)?
**A.** 242 ± 5 mmHg

**Q.** And the “heart rates at 9 h” value ([3]; 9 h, in bpm (unit assumed))?
**A.** 365 ± 16

**Q.** And the “SBP at 12 h after administration” value ([3]; 12 h)?
**A.** 244 ± 5 mmHg

**Q.** What about the “heart rates at 12 h” value ([3]; 12 h, in bpm (unit assumed)) of the same molecule?
**A.** 352 ± 20

**Q.** And the “SBP at 24 h after administration” value ([3]; 24 h)?
**A.** 244 ± 5 mmHg

**Q.** And the “heart rates at 24 h” value ([3]; 24 h, in bpm (unit assumed))?
**A.** 365 ± 15

**Q.** What about the SBP base value ([3]; base value before administration) of the same molecule?
**A.** 242 ± 5 mmHg

**Q.** And the “heart rates base value” ([3]; base value before administration, in bpm (unit assumed))?
**A.** 351 ± 19

**Q.** And the “+dp/dtmax” value [4, 5]?
**A.** 571 ± 33 kPa/a

**Q.** And the DBP [4, 5]?
**A.** 67 ± 6 mmHg

**Q.** And the HR [4, 5]?
**A.** 317 ± 25 bpm

**Q.** What about the LVSP [4, 5] of the same molecule?
**A.** 111 ± 9 mmHg

**Q.** What about the MBP [4, 5] of the same molecule?
**A.** 76 ± 7 mmHg

**Q.** What about the SB [4, 5] of the same molecule?
**A.** 91 ± 8 mmHg

**Q.** And the Vpm [4, 5]?
**A.** 4.1 ± 0.5 /a

**Q.** What about the “−dp/dtmax” value [4, 5] of the same molecule?
**A.** 447 ± 73 kPa/a

**Q.** And the “+dp/dtmax” value [4, 6]?
**A.** 673 ± 28 kPa/a

**Q.** What about the DBP [4, 6] of the same molecule?
**A.** 92 ± 5 mmHg

**Q.** What about the HR [4, 6] of the same molecule?
**A.** 353 ± 17 bpm

**Q.** What about the LVSP [4, 6] of the same molecule?
**A.** 124 ± 6 mmHg

**Q.** What about the MBP [4, 6] of the same molecule?
**A.** 104 ± 5 mmHg

**Q.** What about the SB [4, 6] of the same molecule?
**A.** 128 ± 5 mmHg

**Q.** And the Vpm [4, 6]?
**A.** 4.3 ± 0.5 /a

**Q.** And the “−dp/dtmax” value [4, 6]?
**A.** 536 ± 42 kPa/a

**Q.** And the “antagonism of the cardiovascular effects by glibenclamide (in words)” value ([4]; glibenclamide 20 mg/kg iv pretreatment)?
**A.** could aslo block
